The record followed here is patent EP4818179A1, “PREPARATION FOR AND USE OF PYRIMIDO-THIOPYRANDIONE INHIBITOR FOR KRAS G12C MUTANT PROTEIN” (Ya Therapeutics Inc, priority 2024, dated 2025).

For orientation: IC50 means the concentration needed to halve the response being measured.

In this assay the test system is H358 (KRAS G12C mutant) cells. Put plainly: Tumor cell proliferation inhibition experiment (Cell Titer-Glo luminescent cell viability assay). The following applies: Homo sapiens, NCI-H358, 72 h, read-out: NCI-H538 IC50(nm). A general note: ATP-based viability assays read luminescence as a measure of living cells.
Protocol: H358 (KRAS G12C mutant) cells were digested, centrifuged, and resuspended. Cell density was determined using a Scepter automated cell counter. The cells were diluted to a solution containing 44,000 cells per milliliter. The adjusted cell solution was added to 90 µL per well in a 96-well culture plate. The 96-well plate was placed in a 37°C, 5% CO2 incubator. After culturing the cells for 24 hours, different concentrations of the test compound were added. The cells were then cultured with the compound for 72 hours in the presence of 10% fetal bovine serum. The ATP content was measured using the Cell Titer-Glo luminescent cell viability assay kit (see manufacturer's instructions for details) to assess cell growth inhibition. In short, 30 µL of Cell Titer-Glo reagent was added to each well, and the plate was shaken for 10 minutes to induce cell lysis. The fluorescence signal was detected and recorded using a Fluoroskan Ascent FL (Thermo). The maximum signal value was obtained from cells treated with dimethyl sulfoxide for 72 hours. Minimum signal value was obtained from a single culture medium (zero cell count). Inhibition rate % = (maximum signal value - minimum signal value) / (maximum signal value - minimum signal value × 100%). Data was processed using GraphPadprism 5 software. IC50 values were calculated by fitting an S-shaped dose-response curve.
On to `C=CC(=O)N1CCN(c2nc(OC[C@@]34CCCN3C[C@H](F)C4)nc3c2CS(=O)(=O)C(c2c(F)c(N)cc(C)c2C(F)(F)F)C3)[C@@H](C)C1` (stereo partly drawn) [Compound 1, 1-((3S)-4-(7-(3-amino-2-fluoro-5-methyl-6-(trifluoromethyl)phenyl)-2-(((2R,7AS)-2-fluorotetrahydro-1H-pyrrolazin-7a(5H)-yl)methoxy)-6,6-dioxo-7,8-dihydro-5H-thiaran[4,3-d]pyrimidin-4-yl)-3-methylpyrazin-1-yl)prop-2-en-1-one], for which the half-maximal inhibitory concentration (IC50) is less than 10 nM.

Consider `C=CC(=O)N1CCN(c2nc(OC[C@@]34CCCN3C[C@H](F)C4)nc3c2CS(=O)(=O)[C@H](c2c(F)c(N)cc(C)c2C(F)(F)F)C3)[C@@H](C)C1` [Compound 1A, 1-((3S)-4-((7S)-7-(3-amino-2-fluoro-5-methyl-6-(trifluoromethyl)phenyl)-2-(((2R,7A S)-2-fluorotetrahydro-1H-pyrrolazin-7a(5H)-yl)methoxy)-6,6-dioxo-7,8-dihydro-5H-thiaran[4,3-d]pyrimidin-4-yl)-3-methylpyrazin-1-yl)prop-2-en-1-one], for which the IC50 was less than 10 nM.

`C=CC(=O)N1CCN(c2nc(OC[C@@]34CCCN3C[C@H](F)C4)nc3c2CS(=O)(=O)[C@@H](c2c(F)c(N)cc(C)c2C(F)(F)F)C3)[C@@H](C)C1` [Compound 1B, 1-((3S)-4-((7R)-7-(3-amino-2-fluoro-5-methyl-6-(trifluoromethyl)phenyl)-2-(((2R,7A S)-2-fluorotetrahydro-1H-pyrrolazin-7a(5H)-yl)methoxy)-6,6-dioxo-7,8-dihydro-5H-thiaran[4,3-d]pyrimidin-4-yl)-3-methylpyrazin-1-yl)prop-2-en-1-one]: the IC50 is less than 10 nM.

Take `C=C(F)C(=O)N1CCN(c2nc(OC[C@@]34CCCN3C[C@H](F)C4)nc3c2CS(=O)(=O)C(c2c(F)c(N)cc(C)c2C(F)(F)F)C3)[C@@H](C)C1` (stereo partly drawn) [Compound 2, 1-((3S)-4-(7-(3-amino-2-fluoro-5-methyl-6-(trifluoromethyl)phenyl)-2-(((2R,7AS)-2-fluorotetrahydro-1H-pyrrolazin-7a(5H)-yl)methoxy)-6,6-dioxo-7,8-dihydro-5H-thiaran[4,3-d]pyrimidin-4-yl)-3-methylpyrazin-1-yl)-2-fluoroprop-2-en-1-one]: the IC50 was less than 10 nM.

`C=C(F)C(=O)N1CCN(c2nc(OC[C@@]34CCCN3C[C@H](F)C4)nc3c2CS(=O)(=O)[C@H](c2c(F)c(N)cc(C)c2C(F)(F)F)C3)[C@@H](C)C1` [Compound 2A, 1-((3S)-4-((7S)-7-(3-amino-2-fluoro-5-methyl-6-(trifluoromethyl)phenyl)-2-(((2R,7A S)-2-fluorotetrahydro-1H-pyrrolazin-7a(5H)-yl)methoxy)-6,6-dioxo-7,8-dihydro-5H-thiaran[4,3-d]pyrimidin-4-yl)-3-methylpyrazin-1-yl)-2-fluoroprop-2-en-1-one]: the IC50 was less than 10 nM.

For the compound `C=C(F)C(=O)N1CCN(c2nc(OC[C@@]34CCCN3C[C@H](F)C4)nc3c2CS(=O)(=O)[C@@H](c2c(F)c(N)cc(C)c2C(F)(F)F)C3)[C@@H](C)C1` [Compound 2B, 1-((3S)-4-((7R)-7-(3-amino-2-fluoro-5-methyl-6-(trifluoromethyl)phenyl)-2-(((2R,7A S)-2-fluorotetrahydro-1H-pyrrolazin-7a(5H)-yl)methoxy)-6,6-dioxo-7,8-dihydro-5H-thiaran[4,3-d]pyrimidin-4-yl)-3-methylpyrazin-1-yl)-2-fluoroprop-2-en-1-one], the IC50 is less than 10 nM.

Take `C=CC(=O)N1CCN(c2nc(OC[C@@]34CCCN3C[C@H](F)C4)nc3c2CS(=O)(=O)C(c2c(F)c(N)cc(C)c2C(F)(F)F)C3)C[C@@H]1CC#N` (stereo partly drawn) [Compound 3, 2-((2S)-1-Acryloyl-4-(7-(3-amino-2-fluoro-5-methyl-6-(trifluoromethyl)phenyl)-2-(((2R,7AS)-2-fluorotetrahydro-1H-pyrrolazin-7a(5H)-yl)methoxy)-6,6-dioxo-7,8-dihydro-5H-thiaran[4,3-d]pyrimidin-4-yl)pyrazin-2-yl)acetonitrile]: the IC50 was less than 10 nM.
